Reference: patent publication US8372885B2, “Organic compounds and their uses” (Novartis AG, priority 2008, dated 2013)

These compounds were tested against T1, P. aeruginosa LpxC (Pseudomonas aeruginosa, UniProt P47205) (assay: biochemical). Conditions: 1 nM P. aeruginosa LpxC, 30 min pre-incubation, 2 μM UDP-3-O-(R-3-hydroxydecanoyl)-GlcNAc, pH 7.5, room temperature; read-out: IC50 (LpxC inhibitory activity).
T1 construct: made in house
T1 sequence (P47205 1-303): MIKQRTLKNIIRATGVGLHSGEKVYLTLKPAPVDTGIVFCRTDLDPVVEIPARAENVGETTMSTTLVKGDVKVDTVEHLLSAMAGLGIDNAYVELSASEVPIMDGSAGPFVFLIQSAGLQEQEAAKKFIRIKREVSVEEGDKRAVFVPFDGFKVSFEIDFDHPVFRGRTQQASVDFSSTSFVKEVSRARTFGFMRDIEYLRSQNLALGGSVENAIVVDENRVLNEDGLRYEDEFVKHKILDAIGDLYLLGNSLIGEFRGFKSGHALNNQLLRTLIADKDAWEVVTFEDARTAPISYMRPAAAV
From the text: The LC-MS/MS method for quantitation of LpxC product was developed using an Agilent 1200 Capillary HPLC system coupled to an Applied Biosystems MDS Sciex 4000QTRAP mass spectrometer. Both instruments are controlled using the Applied Biosystems MDS Sciex Analyst software. LpxC reaction product (UDP-3-O—(R-3-hydroxyacyl)-glucosamine) was produced by hydrolysis of LpxC substrate catalyzed by P. a. LpxC and purified using reversed phase chromatography on a Phenomenex Luna C18(2) 4.6×50 mm column. An LpxC product calibration curve was generated to evaluate the sensitivity and dynamic range of the LC-MS/MS method. Briefly, compounds are pre-incubated with 1 nM P. aeruginosa LpxC for 30 min. at room temperature. Reactions are initiated by the addition of 2 μM UDP-3-O—(R-3-hydroxydecanoyl)-GlcNAc. Reactions are conducted in a 96-well plate with a total volume of 100 μL in each well containing 50 mM Sodium phosphate pH 7.5, 0.005% Trition X-100 for 20 min at room temperature. After quenching with 1.8% HOAc (10 μL of a 20% HOAc added to each well), reaction mixtures are analyzed using the LC-MS/MS method and peak areas are transformed into product concentration using a LpxC product calibration curve. […] For IC50 determinations, peak areas are converted to percent inhibition in Microsoft Excel. Percent inhibition values are plotted vs. log compound concentration using XLfit. Data is fit to the four-parameter logistic equation using the non-linear regression algorithm in XLfit to return the IC50 and hill slope values.

Compound	IC50
CC(C)(O)C#CCOc1ccc(C(=O)NC(C(=O)NO)C(C)(C)N)cc1 (stereo not drawn) [Example 8, N-(3-amino-1-(hydroxyamino)-3-methyl-1-oxobutan-2-yl)-4-(4-hydroxy-4-methylpent-2-ynyloxy)benzamide]	183 nM
CC(C)=CCC/C(C)=C/COc1ccc(C(=O)N[C@H](C(=O)NO)[C@@H](C)N)cc1 [Example 48]	10.2 nM
CC(C)(C)C#C/C=C/COc1ccc(C(=O)N[C@H](C(=O)NO)C(C)(C)N)cc1 [Example 63]	0.05 nM
CC#CCOc1ccc(C(=O)NC(C(=O)NO)C(C)(C)N)cc1Cl (stereo not drawn) [Example 55]	9.9 nM
COCC#CCOc1ccc(C(=O)N[C@H](C(=O)NO)[C@@H](C)N)cc1 [Example 44]	56.9 nM
CC(C)(N)[C@H](NC(=O)c1ccc(OCC#CC2=CCC(N)CC2)cc1)C(=O)NO (stereo partly drawn) [Example 75]	6 nM
CC#CCSc1ccc(C(=O)NC(C(=O)NO)C(C)(C)N)cc1 (stereo not drawn) [Example 52]	4.4 nM
CC#CC(C)Oc1ccc(C(=O)N[C@H](C(=O)NO)[C@@H](C)N)cc1 (stereo partly drawn) [Example 31]	141 nM
CCCC#CCOc1ccc(C(=O)N[C@H](C(=O)NO)[C@@H](C)N)cc1 [Example 23]	1.5 nM
C#C/C=C/COc1ccc(C(=O)N[C@H](C(=O)NO)[C@@H](C)N)cc1 [Example 46]	5.5 nM
CC(C)(N)[C@H](NC(=O)c1ccc(OC/C=C/C#CCCO)cc1)C(=O)NO [Example 15, N-((S)-2-Amino-1-hydroxycarbamoyl-2-methyl-propyl)-4-((E)-7-hydroxy-hept-2-en-4-ynyloxy)-benzamide]	2 nM
CC(C)(N)[C@H](NC(=O)c1ccc(OCCC2CC2)cc1)C(=O)NO [Example 83]	8 nM
CC(C)C#CCOc1ccc(C(=O)N[C@H](C(=O)NO)C(C)(C)N)cc1 [Example 53]	5.5 nM
CC#CC(C)(C)Oc1ccc(C(=O)N[C@H](C(=O)NO)[C@@H](C)N)cc1 [Example 27]	73.3 nM
CC#CCOC1CCC(C(=O)N[C@H](C(=O)NO)[C@@H](C)N)CC1 (single isomer, unassigned) [Example 7]	380 nM
CC#CCOc1ccc(C(=O)N[C@H](C(=O)NO)C(C)(C)NC)cc1 [Example 59]	3.2 nM
CCC#CCOc1ccc(C(=O)N[C@H](C(=O)NO)[C@@H](C)N)cc1 [Example 19]	7.6 nM
CC(C)(N)[C@H](NC(=O)c1ccc(OCC#Cc2cccc(CO)c2)cc1)C(=O)NO [Example 77]	0.2 nM
C[C@@H](N)[C@H](NC(=O)c1ccc(OCCC2CC2)cc1)C(=O)NO [Example 49]	24.6 nM
CC(C)(N)[C@H](NC(=O)c1ccc(OCC#CC2=CCNCC2)cc1)C(=O)NO [Example 62]	14 nM

Compound	IC50
CC#CCOc1ccc(C(=O)N[C@H](C(=O)NO)C(C)(C)N)cc1F [Example 35]	2.6 nM
COCC#C/C=C/COc1ccc(C(=O)N[C@H](C(=O)NO)C(C)(C)N)cc1 [Example 71]	1 nM
CC(C)(N)[C@H](NC(=O)c1ccc(OCC#CC2=CCC(O)CC2)cc1)C(=O)NO (stereo partly drawn) [Example 76]	0.03 nM
C[C@@H](N)[C@H](NC(=O)c1ccc(OCC#Cc2ccoc2)cc1)C(=O)NO [Example 61]	3 nM
CC#CCOc1ccc(C(=O)N[C@H](C(=O)NO)C(C)(C)N)c(O)c1 [Example 74]	3 nM
CC#CCOc1ccc(C(=O)N[C@@H](CN)C(=O)NO)cc1 [Example 51]	128 nM
CC(C)(N)[C@H](NC(=O)c1ccc(OCC#Cc2cccnc2)cc1)C(=O)NO [Example 78]	10 nM
CCC#CCOc1ccc(C(=O)NC(C(=O)NO)C(C)(C)N)cc1 (stereo not drawn) [Example 21]	1 nM
CC#CCCOc1ccc(C(=O)NC(C(=O)NO)C(C)(C)N)cc1 (stereo not drawn) [Example 25]	35.1 nM
CC(C)(N)[C@H](NC(=O)c1ccc(OCC#CC2=CCCC2)cc1)C(=O)NO [Example 11, N-((S)-2-Amino-1-hydroxycarbamoyl-2-methyl-propyl)-4-(3-cyclopent-1-enyl-prop-2-ynyloxy)-benzamide]	1 nM
CC(C)(N)[C@H](NC(=O)c1ccc(OC/C=C/C#CCO)cc1)C(=O)NO [Example 72]	1 nM
CC(C)(N)[C@H](NC(=O)c1ccc(OCC2CC2)cc1)C(=O)NO [Example 82]	18 nM
CC#CCOc1ccc(-c2ccc(C(=O)N[C@H](C(=O)NO)C(C)(C)N)cc2)cc1 [Example 22]	0.7 nM
CC#CCOc1ccc(C(=O)NC(C(=O)NO)C2(N)CC2)cc1 (stereo not drawn) [Example 1, N-(1-(1-aminocyclopropyl)-2-(hydroxyamino)-2-oxoethyl)-4-(but-2-ynyloxy)benzamide]	13.7 nM
CC#CCOc1ccc(C(=O)NC(C(=O)NO)C(C)(C)N)cc1OC (stereo not drawn) [Example 39]	151 nM
CC(C)(N)[C@H](NC(=O)c1ccc(OCC#Cc2ccc3c(c2)CCO3)cc1)C(=O)NO [Example 67]	540 nM
CCCCOc1ccc(C(=O)N[C@H](C(=O)NO)C(C)(C)N)cc1 [Example 37]	4 nM
C#CC(C)(C)Oc1ccc(C(=O)NC(C(=O)NO)C(C)(C)N)cc1 (stereo not drawn) [Example 24]	1.4 nM
C[C@@H](N)[C@H](NC(=O)c1ccc(OCC#Cc2ccccc2)cc1)C(=O)NO [Example 17]	1 nM
CC#CCOc1ccc(C(=O)NC(C(=O)NO)C(C)(C)N)cc1C (stereo not drawn) [Example 54]	16.7 nM

Compound	IC50
C=C/C=C/COc1ccc(C(=O)NC(C(=O)NO)C(C)(C)N)cc1 (stereo not drawn) [Example 41]	2.1 nM
COc1cccc(C#CCOc2ccc(C(=O)N[C@H](C(=O)NO)C(C)(C)N)cc2)c1 [Example 70]	2 nM
CC(C)(N)[C@H](NC(=O)c1ccc(OCC#Cc2ccccn2)cc1)C(=O)NO [Example 79]	1 nM
C[C@@H](N)[C@H](NC(=O)c1ccc(OCC#CC2CCC2)cc1)C(=O)NO [Example 58]	6.5 nM
CC(C)(N)[C@H](NC(=O)c1ccc(OCC#CC2CC2)cc1)C(=O)NO [Example 38]	0.4 nM
CC#CCOc1ccc(C(=O)N[C@H](C(=O)NO)C(C)(C)O)cc1 [Example 20]	6.5 nM
CC(C)(N)C(NC(=O)c1ccc(OCC#CC2CCCC2)cc1)C(=O)NO (stereo not drawn) [Example 45]	2.2 nM
CC(C)=CCOc1ccc(C(=O)NC(C(=O)NO)C(C)(C)N)cc1 (stereo not drawn) [Example 47]	3.7 nM
CC#CCOc1ccc(C(=O)N[C@H](C(=O)NO)[C@@H](C)N)c(F)c1 [Example 9, N-((1S,2R)-2-Amino-1-hydroxycarbamoyl-propyl)-4-but-2-ynyloxy-2-fluoro-benzamide]	74.5 nM
CC#CCOc1c(Cl)cc(C(=O)NC(C(=O)NO)C(C)(C)N)cc1Cl (stereo not drawn) [Example 40]	34.6 nM
CC#CCOc1ccc(C(=O)N[C@@H](CCCN)C(=O)NO)cc1 [Example 10, N-((S)-4-Amino-1-hydroxycarbamoyl-butyl)-4-but-2-ynyloxy-benzamide]	2700 nM
CC(C)(N)[C@H](NC(=O)c1ccc(OCC#CC2CCC2)cc1)C(=O)NO [Example 81]	0.03 nM
C/C=C/COc1ccc(C(=O)N[C@H](C(=O)NO)[C@@H](C)N)cc1 [Example 57]	30 nM
CCCCC#C/C=C/COc1ccc(C(=O)N[C@H](C(=O)NO)C(C)(C)N)cc1 [Example 64]	0.2 nM
CC(C)(N)[C@H](NC(=O)c1ccc(OCC#Cc2ccc(O)cc2)cc1)C(=O)NO [Example 68]	1900 nM
C[C@@H](N)[C@H](NC(=O)c1ccc(OCCCC#Cc2ccccc2)cc1)C(=O)NO [Example 30]	35.6 nM
COc1ccc(C#CCOc2ccc(C(=O)N[C@H](C(=O)NO)C(C)(C)N)cc2)cc1 [Example 69]	413 nM
CC#CCNc1ccc(C(=O)N[C@H](C(=O)NO)[C@@H](C)N)cc1 [Example 42]	27.3 nM

Same assay, conditions: IC50 (LpxC inhibitory activity), 1 nM P. aeruginosa LpxC, 30 min pre-incubation, 2 μM UDP-3-O-(R-3-hydroxydecanoyl)-GlcNAc, pH 7.5, room temperature

Compound	IC50
CC#CCOc1ccc(C(=O)N[C@H](C(=O)NO)[C@@H](N)C(F)(F)F)cc1 [Example 6, N-((2S,3R)-3-amino-4,4,4-trifluoro-1-(hydroxyamino)-1-oxobutan-2-yl)-4-(but-2-ynyloxy)benzamide]	13.5 nM
CC#CCOc1ccc(C(=O)N[C@H](C(=O)NO)[C@H](N)C2CC2)cc1 [Example 5, N-((1R,2S)-1-amino-1-cyclopropyl-3-(hydroxyamino)-3-oxopropan-2-yl)-4-(but-2-ynyloxy)benzamide]	124 nM
CC#CCOc1ccc(C(=O)N[C@H](C(=O)NO)[C@H](N)C(C)C)cc1 [Example 33]	268 nM
CC#CCOc1ccc(C(=O)N[C@H](C(=O)NO)[C@@H](C)N)cc1 [Example 16]	8.7 nM
CC#CCOc1ccc(C(=O)N[C@@H](C(=O)NO)[C@@H](N)C(C)C)cc1 [Example 26]	70 nM
